Data: patent US10611741B2, “Substituted benzoxazine and related compounds” (THE J. DAVID GLADSTONE INSTITUTES, A TESTAMENTARY TRUST …, priority 2014, dated 2020)

Assays:
Rat neurons = assay: Neuron autophagy assay (flux LC3 assay, conversion of photoconvertible reporter); assay type: cell-based; details: tested at 5, 10, 50, 200, 500, 1000 nM, overnight treatment, read-out: concentration at which active (neuronal autophagy induction)
Procedure: The induction of neuronal autophagy herein was measured by the conversion of photoconvertible reporter in a flux LC3 assay, as described in Tsvetkov et al., Nature Chemical Biology, 9:586-592 (2013), which is incorporated herein by reference.
mApple, kindly provided by Kurt Thorn of the Nikon microscopy core at UCSFR, was cloned into the pGW1 vector. pGW1-GFP and pGW1-Htt^exl-Q97-GFP were transfected according to normal protocols.
Cell cultures included striata, cortices, and hippocampi from rat embryos or newborn (postnatal day 0) mice were dissected, dissociated, and plated on 96-well tissue culture plates coated with poly-D-lysine and laminin. Cells were cultured for 4 days in neurobasal medium with L-glutamine and B-27 before use.
Rat neurons were transfected with plasmids using lipofectamine, treated overnight with vehicle (DMSO) or 5, 10, 50, 200, 500, and 1000 nM of exemplifying compounds and imaged everyday, once a day, for 7 days. […] Kolmogrov-Smirnov statistics test was used to calculate P values.

[1] = tested on: primary neurons transfected with exon 1 of mHtt protein containing 97 poly-glutamines; assay: Neuronal death assay (primary rodent neuron cellular model of HD, survival by robotic microscopy); assay type: cell-based; details: for protecting neurons from mHtt toxicity: in words
Procedure: The compounds were tested in a primary rodent neuron cellular model of HD. In this disease model, neurons from the striatum, the site of severe pathology in HD, are transfected with full-length or N-terminal fragments of wild-type Htt or mHtt. The model recapitulates cellular and molecular features seen in HD, including mHtt-dependent neurodegeneration. To use the model in drug discovery, striatal neurons are co-transfected with fluorescently tagged mHtt and marker proteins and examined longitudinally using an automated fluorescent microscopy system (U.S. Pat. No. 7,139,415, incorporated by reference in its entirety). Neurons that express mHtt are periodically imaged, and the loss of fluorescence of the marker protein corresponds to cell death. Importantly, the automated system monitors how mHtt affects neuronal survival by following single cells longitudinally, distinguishing transfected neurons from non-transfected cells. Neurodegeneration is quantified by the difference in survival time between neuronal cells expressing mHtt and neuronal cells expressing wild-type Htt; drugs that increase neuronal survival in neurons expressing mHtt are neuroprotective. Hazard functions are determined by Cox proportional hazards (CPH) analysis to create hazard ratios that are the estimated instantaneous risk of death of individual cells, independent of population size.
Exemplifying compounds were tested for protecting neurons from mHtt toxicity. For this survival assay, primary neurons were transfected with a construct expressing exon 1 of mHtt protein containing 97 poly-glutamines and a fluorescent reporter to track the neurons. Neurons were imaged for 7 days using automated fluorescent robotic microscopy and analyzed for survival. Fluphenazine (Compound N) at 100 nM was used as positive control. DMSO was used as negative control.

[2] = Table 4, dose 50 nM, mHtt neurons, imaged 7 days
[3] = Table 3, dose 200 nM, mHtt neurons, imaged 7 days
[4] = Table 5, dose 10 nM, mHtt neurons, imaged 7 days

## Cc1ccc2c(c1)N(CC(=O)N1CCN(C)CC1)C(=O)CO2 [I, 6-methyl-4-(2-(4-methylpiperazin-1-yl)-2-oxoethyl)-2H-benzo[b][1,4]oxazin-3(4H)-one]
Rat neurons
  minimal effective concentration: < 0.05 µM

## Cc1ccc2c(c1)N(C(=O)CN1CCN(C)CC1)CCO2 [B, 1-(6-methyl-2,3-dihydro-4H-benzo[b][1,4]oxazin-4-yl)-2-(4-methylpiperazin-1-yl)ethan-1-one]
Rat neurons
  minimal effective concentration: < 0.05 µM

## Cc1ccc2c(c1)N(CCN1CCN(C)CC1)C(=O)CO2 [G, 6-methyl-4-(2-(4-methylpiperazin-1-yl)ethyl)-2H-benzo[b][1,4]oxazin-3(4H)-one]
Rat neurons
  minimal effective concentration: < 0.05 µM

## Cc1ccc2c(c1)N(CCC(=O)N1CCN(C)CC1)CCO2 [F, 3-(6-methyl-2,3-dihydro-4H-benzo[b][1,4]oxazin-4-yl)-1-(4-methylpiperazin-1-yl)propan-1-one]
Rat neurons
  minimal effective concentration: < 0.05 µM

## Cc1ccc2c(c1)N(CC(=O)N1CCN(CCNS(C)(=O)=O)CC1)CCO2 [Compound S, N-[2-[4-[2-(6-methyl-2,3-dihydro-1,4-benzoxazin-4-yl)acetyl]piperazin-1-yl]ethyl]methanesulfonamide]
[1]; [2]
  Hazard Ratio: 0.6953
[1]
  protecting neurons from mHtt toxicity: active at nM concentrations

## Cc1ccc2c(c1)N(C(=O)CN1CCN(c3ccccc3)CC1)CCO2 [Compound K, 1-(6-methyl-2,3-dihydro-4H-benzo[b][1,4]oxazin-4-yl)-2-(4-phenylpiperazin-1-yl)ethan-1-one]
[1]; [3]
  Hazard Ratio: 0.9209
[1]
  protecting neurons from mHtt toxicity: active at nM concentrations

## Cc1ccc2c(c1)N(C(=O)CC1CCN(C)CC1)CCO2 [L, 1-(6-methyl-2,3-dihydro-4H-benzo[b][1,4]oxazin-4-yl)-2-(1-methylpiperidin-4-yl)ethan-1-one]
[1]; [3]
  Hazard Ratio: 0.9143
[1]
  protecting neurons from mHtt toxicity: active at nM concentrations

## Cc1ccc2c(c1)N(CCCN1CCN(C)CC1)CCO2 [C, 6-methyl-4-(3-(4-methylpiperazin-1-yl)propyl)-3,4-dihydro-2H-benzo[b][1,4]oxazine]
Rat neurons
  minimal effective concentration: < 0.05 µM

## Cc1ccc2c(c1)N(C(=O)CN1CCN(C(C)C)CC1)CCO2 [P, 1-(6-methyl-2,3-dihydro-1,4-benzoxazin-4-yl)-2-(4-propan-2-ylpiperazin-1-yl)ethanone]
[1]; [2]
  Hazard Ratio: 0.7384
[1]; [4]
  Hazard Ratio: 0.6275
[1]
  protecting neurons from mHtt toxicity: active at nM concentrations

## Cc1ccc2c(c1)N(C(=O)CCN1CCN(C)CC1)CCO2 [A, 1-(6-methyl-2,3-dihydro-4H-benzo[b][1,4]oxazin-4-yl)-3-(4-methylpiperazin-1-yl)propan-1-one]
Rat neurons
  minimal effective concentration: < 0.05 µM

## OCCN1CCN(CCCN2c3ccccc3Sc3ccc(C(F)(F)F)cc32)CC1 [Compound N, 2-(4-(3-(2-(trifluoromethyl)-10H-phenothiazin-10-yl)propyl)piperazin-1-yl)ethan-1-ol, reference compound]
[1]; Table 3, dose 100 nM, positive control
  Hazard Ratio: 0.8553
[1]; Table 4, dose 100 nM, positive control
  Hazard Ratio: 0.7018
[1]; Table 5, dose 100 nM, positive control
  Hazard Ratio: 0.5273

## Cc1ccc2c(c1)N(CC(=O)N1CCN(C)CC1)CCO2 [E, 2-(6-methyl-2,3-dihydro-4H-benzo[b][1,4]oxazin-4-yl)-1-(4-methylpiperazin-1-yl)ethan-1-one]
[1]; Table 3, dose 50 nM, mHtt neurons, imaged 7 days
  Hazard Ratio: 0.8952
[1]
  protecting neurons from mHtt toxicity: active at nM concentrations
Rat neurons
  minimal effective concentration: < 0.05 µM

## Cc1ccc2c(c1)N(CCN1CCN(C)CC1)CCO2 [Compound D, 6-methyl-4-(2-(4-methylpiperazin-1-yl)ethyl)-3,4-dihydro-2H-benzo[b][1,4]oxazine]
[1]; Table 3, dose 10 nM, mHtt neurons, imaged 7 days
  Hazard Ratio: 0.9161
[1]
  protecting neurons from mHtt toxicity: active at nM concentrations
Rat neurons
  minimal effective concentration: < 0.05 µM

## Cc1ccc2c(c1)N(CC(=O)N1CCN(CCO)CC1)CCO2 [Q, 1-[4-(2-hydroxyethyl)piperazin-1-yl]-2-(6-methyl-2,3-dihydro-1,4-benzoxazin-4-yl)ethanone]
[1]; [2]
  Hazard Ratio: 0.5709
[1]; [4]
  Hazard Ratio: 0.558
[1]
  protecting neurons from mHtt toxicity: active at nM concentrations

## Cc1ccc2c(c1)N(C(=O)CN1CCN(C3CCCCC3)CC1)CCO2 [O, 2-(4-cyclohexylpiperazin-1-yl)-1-(6-methyl-2,3-dihydro-1,4-benzoxazin-4-yl)ethanone]
[1]; [2]
  Hazard Ratio: 0.5747
[1]
  protecting neurons from mHtt toxicity: active at nM concentrations

## COCCN1CCN(C(=O)CN2CCOc3ccc(C)cc32)CC1 [R, 1-[4-(2-methoxyethyl)piperazin-1-yl]-2-(6-methyl-2,3-dihydro-1,4-benzoxazin-4-yl)ethanone]
[1]; [2]
  Hazard Ratio: 0.7345
[1]; [4]
  Hazard Ratio: 0.7036
[1]
  protecting neurons from mHtt toxicity: active at nM concentrations
